Test results from PubChem BioAssay (NCI).
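Method: 48-hour compound exposure of cells in 96-well plates, five concentrations, linear interpolation of endpoints. At the TGI there is no net growth.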

Key:
Assay in all cases: NCI tumour cell line growth inhibition, 48 h
IGROV1 ovarian = test system: IGROV1 ovarian
SNB-75 CNS = test system: SNB-75 CNS
UACC-257 melanoma = test system: UACC-257 melanoma
KM12 colon = test system: KM12 colon
HCT-15 colon = test system: HCT-15 colon
K-562 leukemia = test system: K-562 leukemia
SK-MEL-5 melanoma = test system: SK-MEL-5 melanoma
SNB-19 CNS = test system: SNB-19 CNS
SN12C renal = test system: SN12C renal
COLO 205 colon = test system: COLO 205 colon
SK-OV-3 ovarian = test system: SK-OV-3 ovarian
M14 melanoma = test system: M14 melanoma
NCI-H460 lung = test system: NCI-H460 lung
786-0 renal = test system: 786-0 renal
RPMI-8226 leukemia = test system: RPMI-8226 leukemia
HCC-2998 colon = test system: HCC-2998 colon
A498 renal = test system: A498 renal
DU-145 prostate = test system: DU-145 prostate
OVCAR-3 ovarian = test system: OVCAR-3 ovarian
BT-549 breast = test system: BT-549 breast
U251 CNS = test system: U251 CNS
HOP-62 NSCLC = test system: HOP-62 NSCLC
SK-MEL-28 melanoma = test system: SK-MEL-28 melanoma
SF-268 CNS = test system: SF-268 CNS
HCT-116 colon = test system: HCT-116 colon
OVCAR-8 ovarian = test system: OVCAR-8 ovarian
MDA-N = test system: MDA-N
MDA-MB-435 = test system: MDA-MB-435
SR leukemia = test system: SR leukemia
CCRF-CEM leukemia = test system: CCRF-CEM leukemia
SW-620 colon = test system: SW-620 colon
HL-60(TB) leukemia = test system: HL-60(TB) leukemia
TK-10 renal = test system: TK-10 renal
CAKI-1 renal = test system: CAKI-1 renal
OVCAR-5 ovarian = test system: OVCAR-5 ovarian
HT29 colon = test system: HT29 colon
MOLT-4 leukemia = test system: MOLT-4 leukemia
PC-3 prostate = test system: PC-3 prostate
A549 NSCLC = test system: A549 NSCLC
ACHN renal = test system: ACHN renal
SF-539 CNS = test system: SF-539 CNS
MDA-MB-231 breast = test system: MDA-MB-231 breast
T-47D breast = test system: T-47D breast
SK-MEL-2 melanoma = test system: SK-MEL-2 melanoma
MCF7 breast = test system: MCF7 breast
RXF 393 renal = test system: RXF 393 renal
NCI/ADR-RES ovarian = test system: NCI/ADR-RES ovarian
EKVX NSCLC = test system: EKVX NSCLC
UO-31 renal = test system: UO-31 renal
UACC-62 melanoma = test system: UACC-62 melanoma
OVCAR-4 ovarian = test system: OVCAR-4 ovarian
LOX IMVI melanoma = test system: LOX IMVI melanoma
NCI-H23 lung = test system: NCI-H23 lung
MALME-3M melanoma = test system: MALME-3M melanoma
SF-295 CNS = test system: SF-295 CNS
NCI-H226 lung = test system: NCI-H226 lung
HS 578T breast = test system: HS 578T breast

Measured: TGI

O=c1cc(CSc2c(-c3ccccc3)c(=O)n(-c3ccccc3)c(=S)n2-c2ccccc2)[nH]c(=O)[nH]1
not listed: OVCAR-4 ovarian | LOX IMVI melanoma | NCI-H23 lung | MALME-3M melanoma | SF-295 CNS | NCI-H226 lung | HS 578T breast
> 100 µM: all other assays above

CC1(C)CC(=O)C2=C(C1)NC1=C(C2)C(=O)CC(C)(C)C1
not listed: T-47D breast | SK-MEL-2 melanoma
> 100 µM: all other assays above
